Results reported in patent US9133182B2, “Selective androgen receptor modulators” (Radius Health, Inc., priority 2010, dated 2015).

Tests used:
androgen receptor = androgen receptor (Rattus norvegicus (Rat), UniProt P15207); experiment: androgen receptor binding assay (fluorescence polarization, Invitrogen); details: AR-Fluormone complex, 4 h at room temperature
Procedure: The assay was performed as specified by the manufacturer (Invitrogen, Madison, Wis.). Briefly, 1 μl of 10 mM compound was added to 500 μl of AR screening buffer in a 1.5 ml eppendorf tube to make a 2×10^−5M stock. 10-fold serial dilutions of the test compounds were prepared ranging in concentration from 10^−5M to 10^−12M. Each dilution was added in triplicate to a black 384-microtiter plate. The test compounds will be diluted 2-fold in the final reaction. 2×AR-Fluormone™ complex was prepared with 2 nM Flourmone AL Green™ and 30 nM AR. 25 μl of 2×complex was aliquoted to each reaction well, such that the final reaction volume was 50 μl per well. Plate was sealed with a foil cover and incubated in the dark at room temperature for 4 h. Polarization values for each well were measured. The polarization values were plotted against the concentration of the test compound. […] As a control, a competition curve for R1881 (methyltrienolone) was performed for each assay.

[1] = tested on: immature, castrated rat (levator ani and bulba cavernous, LABC); experiment: In vivo rat Herschberger assay, LABC weight; parameters: key: no = no activity observed at highest dose tested.; yes = increased LABC weight relative to castrated vehicle control; details: once daily oral gavage for 4 days
Description: In Vivo Rat Model of Androgen and Anabolic Activity-Rat Herschberger Assay
The following is a typical procedure of the in vivo evaluation of the selective androgens of this invention. In particular, this assay looks primarily at the ability of the selective androgens of this invention to increase muscle size in an immature, castrated rat. In addition, androgenic effects are looked at primarily by weighing the prostate and seminal vesicles. Selective compounds will show a greater increase in the levator ani relative to the prostate and seminal vesicles when compared to testosterone treated, castrated animals or to intact animals that have not been treated. Immature Sprague Dawley male rats were obtained Charles River Laboratories (Stoneridge, N.Y.). All animals were maintained in a temperature and humidity controlled room with a 12 hr light: 12 hr dark cycle, with ad lib access to food (TD 291615, Teklad, Madison, Wis.) and water. Rats were anesthetized and orchidectomized (GDX) or sham surgery (SHAM) was performed. After a 7-day recovery period, the animals were randomized according to weight and assigned to treatment groups (n=5), SHAM, OVX+vehicle, OVX+Cpd treated. Testosterone propionate (TP 1 mg/kg in 5% DMSO/95% corn oil) was administered by once daily subcutaneous injections, while the compounds of the invention are dosed in vehicle (0.5% carboxymethylcellulose) was administered by once daily oral gavage. The rats were then dosed once daily for 4 days. All animals were euthanized via carbon dioxide inhalation 24 hs after the last dose. The prostate, seminal vesicle and levator ani and bulba cavernous (LABC) tissues were removed, weighed and recorded. An increase in mean LABC indicates anabolic activity for that particular compound with regard to oral dosing typically at a maximum tested dose of between 1 mg/kg and 30 mg/kg—see Table 1.

[2] = maximum tested dose between 1 mg/kg and 30 mg/kg, Table 1

androgen receptor, sequence (P15207 651-902): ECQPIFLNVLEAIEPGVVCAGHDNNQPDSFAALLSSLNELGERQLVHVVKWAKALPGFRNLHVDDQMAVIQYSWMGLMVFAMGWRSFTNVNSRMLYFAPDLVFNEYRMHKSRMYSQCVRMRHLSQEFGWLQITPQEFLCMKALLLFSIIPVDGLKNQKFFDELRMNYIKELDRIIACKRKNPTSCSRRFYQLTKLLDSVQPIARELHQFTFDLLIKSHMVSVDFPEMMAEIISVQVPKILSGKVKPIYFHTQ

| Structure (SMILES) | IC50 (androgen receptor; Table 2) | Oral activity in Herscheberger assay on LABC weight ([1]; Table 2) | IC50 (androgen receptor; Table 1) | Oral activity in Herscheberger assay on LABC weight [1, 2] |
| --- | --- | --- | --- | --- |
| N#Cc1ccc(N2C(=O)CC[C@@H]2C(O)C(F)(F)F)cc1Cl (stereo partly drawn) [Example 31, 2-chloro-4-((R)-2-(2,2,2-trifluoro-1-hydroxyethyl)-5-oxopyrrolidin-1-yl)benzonitrile] | 46 nM | yes | – | – |
| N#Cc1ccc(N2C(=O)OC[C@@H]2[C@H](O)C(F)(F)F)cc1C(F)(F)F [Example 7, 4-((R)-2-oxo-4-((S)-2,2,2-trifluoro-1-hydroxyethyl)oxazolidin-3-yl)-2-(trifluoromethyl)benzonitrile] | – | – | 50 nM | yes |
| N#Cc1ccc(N2C(=O)OC[C@H]2[C@H](O)C(F)(F)F)cc1Cl [Example 9, 2-chloro-4-((S)-2-oxo-4-((S)-2,2,2-trifluoro-1-hydroxyethyl)oxazolidin-3-yl)benzonitrile] | – | – | 45 nM | yes |
| C[C@@H]1OC(=O)N(c2ccc(C#N)c(Cl)c2)[C@H]1[C@H](O)C(F)(F)F [Example 21, 2-Chloro-4-((4S,5S)-5-methyl-2-oxo-4-((S)-2,2,2-trifluoro-1-hydroxyethyl)oxazolidin-3-yl)benzonitrile] | – | – | 15 nM | yes |
| Cc1c(N2C(=O)CC[C@@H]2[C@H](O)C(F)(F)F)ccc(C#N)c1Cl [Example 29, 2-chloro-4-((R)-2-((S)-2,2,2-trifluoro-1-hydroxyethyl)-5-oxopyrrolidin-1-yl)-3-methylbenzonitrile] | 25 nM | yes | – | – |
| Cc1c(N2C(=O)O[C@@H](C)[C@@H]2[C@H](O)C(F)(F)F)ccc(C#N)c1Cl [Example 17, 2-chloro-3-methyl-4-((4S,5S)-5-methyl-2-oxo-4-((S)-2,2,2-trifluoro-1-hydroxyethyl)oxazolidin-3-yl)benzonitrile] | – | – | 13 nM | yes |
| N#Cc1ccc(N2C(=O)CC[C@@H]2[C@H](O)C(F)(F)F)cc1C(F)(F)F [Example 1, 4-((R)-2-oxo-5-((S)-2,2,2-trifluoro-1-hydroxyethyl)pyrrolidin-1-yl)-2-(trifluoromethyl)benzonitrile] | – | – | 14 nM | yes |
| CN1C[C@H]([C@H](O)C(F)(F)F)N(c2ccc(C#N)c(C(F)(F)F)c2)C1=O [Example 25, 4-((R)-5-((S)-2,2,2-trifluoro-1-hydroxyethyl)-3-methyl-2-oxoimidazolidin-1-yl)-2-(trifluoromethyl)benzonitrile] | – | – | 10 nM | no |
| Cc1c(N2C(=O)CC[C@@H]2[C@H](O)C(F)(F)F)ccc(C#N)c1C(F)(F)F [Example 3, 3-methyl-4-((R)-2-oxo-5-((S)-2,2,2-trifluoro-1-hydroxyethyl)pyrrolidin-1-yl)-2-(trifluoromethyl)benzonitrile] | – | – | 11 nM | yes |
| Cc1c(N2C(=O)OC[C@@H]2[C@H](O)C(F)(F)F)ccc(C#N)c1C(F)(F)F [Example 13, 3-methyl-4-((R)-2-oxo-4-((S)-2,2,2-trifluoro-1-hydroxyethyl)oxazolidin-3-yl)-2-(trifluoromethyl)benzonitrile] | – | – | 13 nM | yes |
